From patent US11999676B2, “Vesicular monoamine transporter-2 ligands and their use in the treatment of psychostimulant abuse” (priority 2016, dated 2024)

How the values were obtained:
VMAT2 = VMAT2 (Rattus norvegicus (Rat), UniProt Q01827); assay: [3H]Dopamine ([3H]DA) uptake assay, vesicular preparation; assay type: biochemical; conditions: [3H]DA uptake, rat; read-out: VMAT2 (rat) Inhibition: Mean Ki ± Standard Deviation
hERG channel = hERG channel (Homo sapiens (Human), UniProt Q12809); assay: [3H]Dofetilide binding assay, HEK-293 cell membrane preparation; conditions: [3H]dofetilide, HEK-293 cell membranes; read-out: hERG Binding: Mean Ki ± Standard Deviation
Method: [^3H]Dofetilide binding assays were conducted using commercially available HEK-293 cell membranes which stably express the hERG channel. Membranes were suspended in assay buffer (50 mM Tris, 10 mM KCl, 1 mM MgCl2, pH 7.4) prior to the experiment. […] Aliquots of the HEK-293 cell membrane suspension which contained 5 μg membrane protein were added to tubes containing assay buffer, 5 nM [^3H]dofetilide and a range of concentrations of analog (10 nM-100 μM). Nonspecific binding was determined in the presence of amitriptyline (1 mM). Samples were incubated for 1 hr. at 24° C., followed by rapid filtration. […] The affinity for the [^3H]dofetilide binding site on the hERG channel expressed in the HEK-293 cellular membrane was determined from the analog concentration response curves.

[1] = Microsomal stability assay, human liver microsomes; conditions: for CLint scaled at 0.08 µM / half-life at 0.08 µM: both, human, pooled liver microsomes; for CLint scaled at 0.08 µM: pH 7.4, Microsomal stability assays: Clearance; for half-life at 0.08 µM: pH 7.4, Microsomal stability assays: Half-life
[2] = Microsomal stability assay, rat liver microsomes; conditions: for CLint scaled at 0.08 µM / half-life at 0.08 µM: female, Sprague-Dawley, rat, liver microsomes; for CLint scaled at 0.08 µM: pH 7.4, Microsomal stability assays: Clearance; for half-life at 0.08 µM: pH 7.4, Microsomal stability assays: Half-life
Method: Each plate holds triplicate samples of two controls (0.4 mM) and up to 14 compounds (0.08 mM) in rat and human liver microsomes. Aliquots of each well of the plate (175 μl of each well) were transferred from the master plate into 5 assay plates. For 0-hr time point, pre-cooled (4° C.) internal standard (437.5 μL, 2 μM caffeine in methanol) was added to the first plate before the reaction starts. NADPH regenerating system solution A (6.05 ml, Fisher Scientific, #NC9255727) was combined with NADPH regenerating system solution B (1.21 ml, Fisher Scientific, #NC9016235) in potassium phosphate buffer (15.8 ml, 0.1 M, pH 7.4, 37° C.). The resulting NADPH solution (43.8 μl) was added to each well of all the 96-well assay plates and mixed with pipette briefly making the final protein and compound concentrations respectively: 0.5 mg/ml, 0.08 μM (0.4 μM for controls). Plates were sealed, and all plates except the 0-hr plate were incubated at 37° C., shaken at a speed of 60 rpm. A single assay plate was tested at each time point: 0.5 hr, 1 hr, 2 hr, and 4 hr. At each time point, 437.5 μL of pre-cooled internal standard was added each well of the plate to quench the reaction. […] 120 μl supernatant was transferred to a 96-well plate, centrifuged again and analyzed by UPLC-MS (Waters Inc., Milford, MA). The compounds and internal standard were detected by selected ion recording (SIR).
The amount of material was measured as a ratio of peak area to the internal standard and graphed. Using the slope from the initial linear portion of this curve, the degradation rate constant is calculated using equation [1].

hERG channel, sequence (Q12809 whole entry): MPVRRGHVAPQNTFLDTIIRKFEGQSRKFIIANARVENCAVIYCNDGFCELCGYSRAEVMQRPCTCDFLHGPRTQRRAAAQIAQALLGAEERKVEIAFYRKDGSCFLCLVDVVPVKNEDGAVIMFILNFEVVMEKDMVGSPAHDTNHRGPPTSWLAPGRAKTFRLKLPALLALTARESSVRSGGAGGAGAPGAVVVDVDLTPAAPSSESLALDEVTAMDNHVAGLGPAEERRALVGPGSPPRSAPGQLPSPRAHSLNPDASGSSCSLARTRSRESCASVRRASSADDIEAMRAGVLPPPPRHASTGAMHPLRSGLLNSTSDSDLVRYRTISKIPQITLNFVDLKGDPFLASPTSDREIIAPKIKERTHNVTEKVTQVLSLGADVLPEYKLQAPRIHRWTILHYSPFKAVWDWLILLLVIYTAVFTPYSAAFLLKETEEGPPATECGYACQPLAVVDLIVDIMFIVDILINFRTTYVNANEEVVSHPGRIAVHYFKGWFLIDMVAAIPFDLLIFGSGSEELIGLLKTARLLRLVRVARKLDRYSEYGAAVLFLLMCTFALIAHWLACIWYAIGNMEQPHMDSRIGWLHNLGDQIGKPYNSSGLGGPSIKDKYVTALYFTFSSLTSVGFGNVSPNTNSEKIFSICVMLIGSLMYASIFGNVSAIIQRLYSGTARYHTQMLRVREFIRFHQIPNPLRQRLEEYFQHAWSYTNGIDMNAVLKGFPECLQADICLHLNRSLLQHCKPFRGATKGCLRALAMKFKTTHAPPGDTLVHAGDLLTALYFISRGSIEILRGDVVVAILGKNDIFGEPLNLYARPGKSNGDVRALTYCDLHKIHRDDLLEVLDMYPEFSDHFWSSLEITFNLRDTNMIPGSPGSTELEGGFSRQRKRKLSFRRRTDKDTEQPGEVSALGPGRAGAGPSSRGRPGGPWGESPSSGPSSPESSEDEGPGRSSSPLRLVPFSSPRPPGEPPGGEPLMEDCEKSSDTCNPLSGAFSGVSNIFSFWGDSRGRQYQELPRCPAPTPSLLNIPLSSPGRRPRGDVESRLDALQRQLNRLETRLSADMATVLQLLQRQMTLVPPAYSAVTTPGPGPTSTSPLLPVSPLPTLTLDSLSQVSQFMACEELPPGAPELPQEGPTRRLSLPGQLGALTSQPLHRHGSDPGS

| SMILES | Ki (VMAT2) [nM] | Ki (hERG channel) [nM] | CLint scaled at 0.08 µM [1] [mL/min/kg] | half-life at 0.08 µM [1] [min] | Microsomal stability assays: Half-life [2] [min] | CLint scaled at 0.08 µM [2] [mL/min/kg] | half-life at 0.08 µM [2] [min] | Microsomal stability assays: Clearance [1] [mL/min/kg] | Microsomal stability assays: Half-life [1] [min] | Microsomal stability assays: Clearance [2] [mL/min/kg] |
| --- | --- | --- | --- | --- | --- | --- | --- | --- | --- | --- |
| CC(Cc1ccc(C(F)(F)F)cc1)NCCCc1ccncc1 (stereo not drawn) [Compound 165] | 53.2 ± 6.5 | 1890 ± 639 | < 5.2 | > 240 |  |  |  |  |  |  |
| CC(Cc1ccc(F)cc1)NCCCc1ccc(Cl)cc1 (stereo not drawn) [Compound 188] | 22 ± 7.72 | 467 ± 280 | 4.7 | 264 |  |  |  |  |  |  |
| CC(Cc1ccc(F)cc1)NCCCc1ccnc2ccccc12 (stereo not drawn) [Compound 162] | 30.5 ± 8.59 | 2950 ± 1360 | 102 | 12 |  |  |  |  |  |  |
| CC(Cc1ccc(Br)cc1)NCCCc1ccc(Cl)cc1 (stereo not drawn) [Compound 184] | 9.06 ± 1.61 | 196 ± 30.5 |  |  | 6 | 452 |  |  |  |  |
| CC(Cc1ccc(-c2cccnc2)cc1)NCCCc1ccc(F)cc1 (stereo not drawn) [Compound 192] | 11.9 ± 9.94 | 675 ± 127 |  |  |  | 77.2 | 36 |  |  |  |
| CC(Cc1ccc(Cl)cc1)NCCCc1ccc(N)cc1 (stereo not drawn) [Compound 62] | 31.6 ± 4.66 | 2380 ± 1120 |  |  |  | 83 | 36 |  |  |  |
| CC(Cc1ccccc1)NCCCc1ccc(-c2cccnc2)cc1 (stereo not drawn) [Compound 210] | 55.4 ± 7.94 | 3120 ± 251 |  |  | 6 | 392 |  |  |  |  |
| CC(Cc1ccccc1)NCCCc1ccc(I)cc1 (stereo not drawn) [Compound 213] | 22.2 ± 2.21 | 642 ± 168 |  |  |  |  |  | <5.20 | >240 |  |
| CC(Cc1ccccc1)NCCCc1ccc([N+](=O)[O-])cc1 (stereo not drawn) [Compound 222] | 4.97 ± 3.08 | 96.1 ± 28.3 |  |  |  | > 400 | < 6 |  |  |  |
| CC(Cc1ccc([N+](=O)[O-])cc1)NCCCc1ccccc1 (stereo not drawn) [Compound 115] | 19 ± 3.81 | 285 ± 78.8 | < 5.2 | > 240 |  |  |  |  |  |  |
| FCC(Cc1ccccc1)NCCCc1ccccc1 (stereo not drawn) [Compound 98] | 27.8 ± 5.29 | 17100 ± 12100 |  |  |  | > 400 | < 6 |  |  |  |
| CC(Cc1ccc(F)cc1)NCCCc1ccc(N)cc1 (stereo not drawn) [Compound 94] | 84.6 ± 29.1 | 3980 ± 3410 |  |  |  | 119 | 24 |  |  |  |
| CC(Cc1ccccc1)NCCCc1ccc(N)cc1 (stereo not drawn) [Compound 220] | 40.4 ± 4.72 | 5340 ± 5630 |  |  |  | 65.3 | 42 |  |  |  |
| CC(Cc1ccc(F)c(F)c1)NCCCc1ccc(N)cc1 (stereo not drawn) [Compound 60] | 48.3 ± 16.4 | 3140 ± 1550 |  |  |  | 30.7 | 60 |  |  |  |
| CC(Cc1ccc(N)cc1)NCCCc1ccc(F)cc1 (stereo not drawn) [Compound 111] | 16.7 ± 3.34 | 2500 ± 435 |  |  | 144 |  |  |  |  | 19.5 |
| CC(Cc1ccc(Br)cc1)NCCCc1ccc(I)cc1 (stereo not drawn) [Compound 180] | 48.4 ± 19.4 | 601 ± 195 |  |  |  | 290 | 12 |  |  |  |
| CC(Cc1ccc(F)c(F)c1)NCCCc1ccncc1 (stereo not drawn) [Compound 96] | 78.5 ± 15.8 | 4070 ± 734 |  |  |  | 96.8 | 30 |  |  |  |
| CC(Cc1ccc(C(F)(F)F)cc1)NCCCc1ccncc1 (stereo not drawn) [Compound 164] | 53.3 ± 6.5 | 1890 ± 639 |  |  |  | 83.3 | 36 |  |  |  |
| CCC(Cc1ccccc1)NCCCc1ccc(O)cc1 (stereo not drawn) [Compound 207] | 37.8 ± 6.59 | 2380 ± 517 |  |  |  | > 400 | < 6 |  |  |  |
| FCC(Cc1ccccc1)NCCCc1ccc(F)cc1 (stereo not drawn) [Compound 101] | 14.7 ± 9.28 | 4800 ± 940 |  |  |  | 253 | 12 |  |  |  |
| CC(Cc1ccc(N)cc1)NCCCc1ccc(F)cc1 (stereo not drawn) [Compound 110] | 19.2 ± 4.43 | 2590 ± 792 |  |  |  | < 10 | > 240 |  |  |  |
| CC(Cc1ccc([N+](=O)[O-])cc1)NCCCc1ccc(F)cc1 (stereo not drawn) [Compound 119] | 9.85 ± 1.62 | 130 ± 25.6 |  |  | 24 |  |  |  |  | 112 |
| CC(Cc1ccc(F)cc1)NCCCc1c[nH]c2ccccc12 (stereo not drawn) [Compound 91] | 36.5 ± 5.56 | 2200 ± 124 |  |  |  | > 400 | < 6 |  |  |  |
| CC(Cc1ccc(F)cc1)NCCCc1ccncc1 (stereo not drawn) [Compound 176] | 80.7 ± 21 | 3770 ± 2.04 |  |  |  | 71.8 | 42 |  |  |  |
